Measured values reported in paper PMC4604124, “In Vitro Characterization of the Pharmacological Properties of the Anti-Cancer Chelator, Bp4eT, and Its Phase I Metabolites” (PLoS ONE, 2015).
pIC50: −log10 of the molar value. “And” between values parts separate entries of the source, which are not always exact repeats. Equal values may be shown once.

What was measured:
[1] = test system: A549 human lung adenocarcinoma cells; assay: MTT cytotoxicity assay, A549 cells; format: cell-based; details: Homo sapiens, A549, A549; 2 000 b/j; MTT; single experiment (date); sheet Bp4eA
Method: For cytotoxicity experiments, cancer cells were seeded at a density of 5,000 (MCF-7), 10,000 (HL-60) or 2,000 cells/well (HCT116 and A549) in 96-well plates (TPP) for 24 h/37°C prior to the addition of examined agents. The non-cancerous cells, 3T3 and H9c2 cells, were cultured for 24 h/37°C in 96-well plates at a density of 10,000 cells/well, the medium was then changed to serum- and pyruvate-free DMEM (Sigma-Aldrich) and incubated with the cells for another 24 h/37°C. The cytotoxic effects of Bp4eT and its metabolites were studied at different concentrations after a 72 h/37°C incubation. In order to aid the dissolution of the lipophilic ligands, 0.1% dimethyl sulfoxide (v/v) (DMSO; Sigma-Aldrich) was present in the culture medium of all groups. At this concentration, DMSO had no effect on cellular proliferation or viability.
The viability of cells were determined using an MTT assay (Sigma-Aldrich) according to previously established methods. The optical density of soluble MTT was measured at λ = 570 nm, subtracting the λ = 690 nm background using a Tecan Infinite 200M plate reader (Tecan Group, Männedorf, Switzerland). The viability or proliferation of experimental groups was expressed as a percentage of the untreated controls (100%).
SigmaStat for Windows 3.5 (Systat Software, San Jose, CA, USA) statistical software package was utilized to analyze results. The data are expressed as the mean ± SD of a given number of experiments. Statistical significance was determined using a one-way ANOVA with a Bonferroni post-hoc test or Student’s t-test. The results were considered to be statistically significant when p < 0.05. The IC50 values were calculated using CalcuSyn 2.0 software (Biosoft, Cambridge, UK). Cell cycle analysis was evaluated using MultiCycle AV Software (Phoenix Flow Systems, San Diego, CA, USA).

MCF-7 cells = assay: Cellular 59Fe uptake from 59Fe2-transferrin; format: cell-based, human; set-up: key to Uptake 59Fe, Ave / Uptake 59Fe: % of internalized 59Fe in untreated control cells
Excerpt: Human transferrin (Sigma) was labeled with ^56Fe or ^59Fe (PerkinElmer, Massachusetts, USA) to produce ^56Fe2-transferrin or ^59Fe2-transferrin (^59Fe2-Tf), respectively, with a final specific activity of 500 pCi/pmol Fe, as previously described. Unbound ^59Fe was removed by exhaustive vacuum dialysis against a large excess of 0.15 M NaCl buffered to pH 7.4 with 1.4% NaHCO3 by standard methods.
The ability of the chelators to prevent cellular ^59Fe uptake from ^59Fe2-transferrin was examined using standard techniques. In brief, confluent MCF-7 cells in 6-well plates were incubated with 0.75 μM ^59Fe2-Tf for 3 h/37°C in the presence of Bp4eT or its metabolites (25 μM). The cells were then washed four times with ice-cold PBS and the level of internalized ^59Fe was determined by incubating the cell monolayer for 30 min/4°C with the general protease, Pronase (1 mg/mL; Sigma-Aldrich). The cells were then removed from the monolayer with a plastic spatula on ice and centrifuged for 1 min/12,000 x g/4°C. The supernatant represents membrane-bound, Pronase-sensitive ^59Fe that was released by the protease, while the Pronase-insensitive fraction represents internalized ^59Fe. The amount of internalized ^59Fe was expressed as a percentage of ^59Fe internalized by control (untreated) cells.

[2] = Ascorbate oxidation assay (redox activity of iron complexes); format: biochemical;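 as to %Fe 30min (ascorbate oxidation, Fe 100%), průměr: IBE 3 means excess free chelator over iron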;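 as to %Fe 30min (ascorbate oxidation, Fe 100%): IBE 3 means excess free chelator over iron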;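 as to %Fe 30min: ascorbate oxidation as % of the Fe control (Fe 100%): IBE 0.1 means iron-binding equivalents with iron in excess over chelator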;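 as to Change of absorbance, odečet 0 (time 0 subtracted), čas 10, průměr: IBE 3 means excess free chelator over 10 µM FeCl3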;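 as to Change of absorbance, odečet 0 (time 0 subtracted), čas 10: IBE 3 means excess free chelator over 10 µM FeCl3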
Method: The ascorbate oxidation assay was used to assess the redox activity of the iron complexes of the chelators using an established protocol. In brief, 100 μM ascorbic acid was prepared immediately prior to the experiment and incubated either alone or in the presence of 10 μM FeCl3 in a 50-fold molar excess (500 μM) of citrate and the chelators. Chelators were assayed at iron-binding equivalents (IBE) of 0.1 (excess of iron), 1 (fully coordinated iron—chelator complexes) and 3 (excess of free chelator). […] The decrease of absorbance between the two time points was calculated and expressed as a percentage of control without the chelator.

[3] = sheet IBE 1, time 10, replicates
[4] = sheet IBE 1, time 20, replicates
[5] = sheet IBE 1, time 30, replicates

For `CCN=CNN=C(c1ccccc1)c1ccccn1` [Bp4eA, N ^3-ethyl-N ^1-[phenyl(pyridin-2-yl)methylene]formamidrazone], the pIC50 [1] was 3.69, the “Internalized 59Fe uptake, % of the control” value (MCF-7 cells; 25 μM, 3 h/37°C, MCF-7, 0.75 μM 59Fe2-Tf) was “comparable to the untreated control” and the “Uptake 59Fe, Ave” value (MCF-7 cells; average of all replicates, Control Ave = 100) was 93.4629. For the same compound, the “Uptake 59Fe” value (MCF-7 cells; single replicate (three per date), Control Ave = 100) was 92.0297 and 96.1364 and 98.7564 and 74.0112 and 96.1871 and 80.6939 and 103.039 and 106.85, the “%Fe 30min: ascorbate oxidation as % of the Fe control (Fe 100%)” value ([2]; IBE 0.1, 30 min, mean (průměr)) was 102.5% and the “Change of absorbance after subtraction of time 0 (odečet 0)” value (from here on “Change of absorbance … (odečet 0)”) ([2]; IBE 0.1, time 10, mean (průměr)) was -0.03561. The “Change of absorbance … (odečet 0)” value ([2]; IBE 0.1, time 20, mean (průměr)) was -0.0674, the “Change of absorbance … (odečet 0)” value ([2]; IBE 0.1, time 30, mean (průměr)) was -0.09706 and the “Absorbance (ascorbate, λ = 265 nm)” value ([2]; IBE 0.1, čas 0 (time 0), mean (průměr)) was 0.8401. For the same compound, the “Absorbance (ascorbate, λ = 265 nm)” value ([2]; IBE 0.1, čas 10 (time 10), mean (průměr)) was 0.8044, the “Absorbance (ascorbate, λ = 265 nm)” value ([2]; IBE 0.1, čas 20 (time 20), mean (průměr)) was 0.7727 and the “Absorbance (ascorbate, λ = 265 nm)” value ([2]; IBE 0.1, čas 30 (time 30), mean (průměr)) was 0.743. The “%Fe 30min (ascorbate oxidation, Fe = 100%), průměr (mean)” value ([2]; sheet IBE 1, 30min, Fe 100%, mean) was 106.5%, the “%Fe 30min (ascorbate oxidation, Fe = 100%), single replicates” value ([2]; sheet IBE 1, 30min, Fe 100%, replicates) was 113.3% and 104.9% and 102.6% and 110.5% and 113.6% and 110.3% and 106.1% and 101.1% and 95.68% and the “raw reading at čas 0 (time 0), průměr (mean)” value ([2]; sheet IBE 1, time 0, mean of 9 readings) was 0.8163. The “raw reading at čas 0 (time 0), single replicates” value ([2]; sheet IBE 1, time 0, replicates of 2014-03-24 (two runs) and 2014-03-25) was 0.8356 and 0.8379 and 0.8058 and 0.8059 and 0.8041 and 0.8006 and 0.8152 and 0.8134 and 0.828, the “odečet 0 (reading minus time 0 reading) at čas 10, průměr (mean)” value ([2]; sheet IBE 1, time 10, mean) was -0.03248 and the “raw reading at čas 10 (time 10), průměr (mean)” value ([2]; sheet IBE 1, time 10, mean of 9 readings) was 0.7838. The “odečet 0 (reading minus time 0 reading) at čas 10, single replicates” value [2, 3] was -0.02971 and -0.02191 and -0.02781 and -0.03858 and -0.03648 and -0.03745 and -0.03205 and -0.03185, the “raw reading at čas 10 (time 10), single replicates” value [2, 3] was 0.7761 and 0.784 and 0.7763 and 0.762 and 0.7787 and 0.7769 and 0.7906 and 0.8036 and 0.8061 and the “odečet 0 (reading minus time 0 reading) at čas 20, průměr (mean)” value ([2]; sheet IBE 1, time 20, mean) was -0.06498. For the same compound, the “raw reading at čas 20 (time 20), průměr (mean)” value ([2]; sheet IBE 1, time 20, mean of 9 readings) was 0.7513, the “odečet 0 (reading minus time 0 reading) at čas 20, single replicates” value [2, 4] was -0.0647 and -0.0595 and -0.0576 and -0.07087 and -0.07167 and -0.06987 and -0.06821 and -0.06221 and -0.06021 and the “raw reading at čas 20 (time 20), single replicates” value [2, 4] was 0.7411 and 0.7464 and 0.7465 and 0.7297 and 0.7435 and 0.7598 and 0.7734 and 0.7777. For the same compound, the “odečet 0 (reading minus time 0 reading) at čas 30, průměr (mean)” value ([2]; sheet IBE 1, time 30, mean) was -0.09465, the “raw reading at čas 30 (time 30), průměr (mean)” value ([2]; sheet IBE 1, time 30, mean of 9 readings) was 0.7216 and the “odečet 0 (reading minus time 0 reading) at čas 30, single replicates” value [2, 5] was -0.09786 and -0.09066 and -0.08866 and -0.09551 and -0.09811 and -0.09531 and -0.1001 and -0.09539 and -0.09029. The “raw reading at čas 30 (time 30), single replicates” value [2, 5] was 0.7079 and 0.7152 and 0.7154 and 0.7051 and 0.7171 and 0.7181 and 0.7279 and 0.7402 and 0.7477, the “%Fe 30min (ascorbate oxidation, Fe 100%), průměr” value ([2]; sheet IBE 3, 30min, Fe alone = 100%, mean (průměr) of the 9 replicates) was 105.3% and the “%Fe 30min (ascorbate oxidation, Fe 100%)” value ([2]; sheet IBE 3, 30min, Fe alone = 100%, single replicates) was 100.1% and 103.3% and 98.42% and 112.4% and 108.5% and 106.2% and 109.9% and 107% and 102%. The “Change of absorbance, odečet 0 (time 0 subtracted), čas 10, průměr” value ([2]; sheet IBE 3, time 10 minus time 0, mean (průměr)) was -0.03537, the “Change of absorbance, odečet 0 (time 0 subtracted), čas 10” value ([2]; sheet IBE 3, time 10 minus time 0, single replicates) was -0.03156 and -0.03676 and -0.03266 and -0.04073 and -0.03893 and -0.03883 and -0.03458 and -0.03388 and -0.03038 and the “Change of absorbance, odečet 0 (time 0 subtracted), čas 20, průměr” value ([2]; sheet IBE 3, time 20 minus time 0, mean (průměr)) was -0.06757. For the same compound, the “Change of absorbance, odečet 0 (time 0 subtracted), čas 20” value ([2]; sheet IBE 3, time 20 minus time 0, single replicates) was -0.06509 and -0.07099 and -0.06549 and -0.07376 and -0.07016 and -0.07036 and -0.06559 and -0.06109, the “Change of absorbance, odečet 0 (time 0 subtracted), čas 30, průměr” value ([2]; sheet IBE 3, time 30 minus time 0, mean (průměr)) was -0.0973 and the “Change of absorbance, odečet 0 (time 0 subtracted), čas 30” value ([2]; sheet IBE 3, time 30 minus time 0, single replicates) was -0.09296 and -0.09586 and -0.09136 and -0.1043 and -0.1007 and -0.0986 and -0.1006 and -0.09796 and -0.09336.
